Assay results: the CheMixHub viscosity set

Experiment: xn = mol fraction of the nth substance listed

O=S1(=O)CCCC1 + ClCCCl
viscosity [mPa·s], 100 kPa
Conditions | x1 = 0.0168 | x1 = 0.1062 | x1 = 0.2045 | x1 = 0.3091 | x1 = 0.4077 | x1 = 0.5125 | x1 = 0.6483 | x1 = 0.8007 | x1 = 0.9708
303.15 K | 0.8741 | 1.693 | 2.594 | 3.559 | 4.475 | 5.452 | 6.725 | 8.157 | 9.753
308.15 K | 0.8027 | 1.515 | 2.303 | 3.149 | 3.949 | 4.803 | 5.911 | 7.157 | 8.551
313.15 K | 0.7524 | 1.384 | 2.086 | 2.837 | 3.545 | 4.3 | 5.28 | 6.382 | 7.617

O=S1(=O)CCCC1 + OCCOCCOCCO
303.15 K, 101 kPa
Conditions | viscosity [mPa·s]
x1 = 0.0435 | 27.75
x1 = 0.0985 | 25.88
x1 = 0.2083 | 22.54
x1 = 0.2999 | 20.02
x1 = 0.3966 | 17.63
x1 = 0.4473 | 16.49
x1 = 0.4985 | 15.45
x1 = 0.5498 | 14.47
x1 = 0.5855 | 13.85
x1 = 0.6913 | 12.24
x1 = 0.8065 | 10.9
x1 = 0.8984 | 10.18
x1 = 0.9458 | 10.08

Cc1cccc(C)c1 + CC(C)CO
308.15 K, 101 kPa
Conditions | viscosity [mPa·s]
x2 = 0.066 | 0.543
x2 = 0.1299 | 0.555
x2 = 0.2218 | 0.581
x2 = 0.3376 | 0.635
x2 = 0.4463 | 0.714
x2 = 0.5733 | 0.862
x2 = 0.6333 | 0.954
x2 = 0.7251 | 1.146
x2 = 0.8223 | 1.479
x2 = 0.9039 | 1.794
x2 = 0.9623 | 2.218

OC1COCOC1 + OCCO
viscosity [mPa·s], 101 kPa
Conditions | x1 = 0.1002 | x1 = 0.2002 | x1 = 0.3 | x1 = 0.4 | x1 = 0.5004 | x1 = 0.5997 | x1 = 0.7 | x1 = 0.8001 | x1 = 0.8999
298.15 K | 16.97 | 16.11 | 14.94 | 13.85 | 12.88 | 12.74 | 12.81 | 12.79 | 12.89
308.15 K | 11.6 | 10.98 | 10.23 | 9.473 | 8.583 | 8.457 | 8.572 | 8.812 | 8.878
318.15 K | 8.193 | 7.647 | 7.214 | 6.665 | 6.111 | 5.995 | 5.915 | 6.167 | 6.474

CCC(C)O (centres undefined) + CN(C)C=O
viscosity [mPa·s], 101 kPa
Conditions | 298.15 K | 303.15 K | 308.15 K | 313.15 K
x2 = 0.085 | 2.48 | 2.11 | 1.78 | 1.52
x2 = 0.164 | 2.2 | 1.83 | 1.57 | 1.35
x2 = 0.2446 | 2 | 1.65 | 1.41 | 1.23
x2 = 0.3503 | 1.8 | 1.5 | 1.29 | 1.13
x2 = 0.4398 | 1.65 | 1.39 | 1.19 | 1.07
x2 = 0.5035 | 1.51 | – | – | –
x2 = 0.5738 | 1.44 | 1.23 | 1.08 | 1.01
x2 = 0.6512 | 1.32 | 1.14 | 1.02 | 0.97
x2 = 0.7515 | 1.17 | 1.03 | 0.93 | 0.91
x2 = 0.841 | 1.03 | 0.93 | 0.85 | 0.86
x2 = 0.9435 | 0.88 | 0.82 | 0.76 | 0.79
